How the values were obtained:
[1] = system: NCI-H441 xenograft model; experiment: NCI-H441 xenograft tumor growth inhibition; assay type: in vivo, mouse; conditions: Lung NCI-H441; IP 15 mg/kg BIW; non-amplified; P ns
Excerpt: The impact of FGFR1-ECD.339-Fc on tumor growth was compared between FGFR1 gene amplified and non-amplified lung cancer xenograft models. Lung cell lines without FGFR1-amplification examined in this experiment were as follows: A549, NCI-H460, NCI-H226, NCI-H2126, NCI-H441, NCI-H358, NCI-H522 and Colo699. Non-amplified cell lines were purchased from ATTC (Manassas, Va.) and cultured according to supplier instructions. Lung cancer xenograft models using non-FGFR1 gene amplified cell lines were carried out substantially as described in Example 2.
(§1) Percentage tumor growth inhibition by FGFR1-ECD.339-Fc was determined by area-under-the-curve (AUC) analysis of xenograft growth curves treated with FGFR1-ECD.339-Fc compared to albumin control. […] The difference in FGFR1-ECD.339-Fc-mediated xenograft inhibition between FGFR1 gene amplified and non-amplified lung cancer xenograft models was statistically significant (P=0.0333).

[2] = system: NCI-H520 xenograft model; experiment: NCI-H520 NSCLC xenograft tumor growth inhibition; assay type: in vivo, mouse; conditions: Lung NCI-H520, IP 20 mg/kg BIW, FGFR1 amplified, P < 0.05
Method: Six week old female SCID mice were purchased from Charles River Laboratories (Wilmington, Mass.) and were acclimated for 1 week before the start of the study. Human non-small cell lung cancer (NSCLC) cell line NCI-H520 was used as the tumor model and was purchased from ATCC (Manassas, Va.; Cat. No. HTB-182). The cells were cultured for three passages in RPMI-1640 Medium+10% FBS+2 mM L-glutamine at 37° C. in a humidified atmosphere with 5% CO2. When the cultured cells reached 85-90% confluence, cells were harvested and resuspended in cold Ca^2+ and Mg^2+ free phosphate buffered saline (PBS) containing 50% Matrigel at 5×10^7 cells per milliliter. The cells were implanted subcutaneously over the right flank of the mice at 5×10^6 cells/100 μl/mouse. One day following cell implantation mice were sorted and randomized (n=10) and treatment initiated as described below. […]
Tumor sizes were measured in each mouse on days 11, 18, 25, 32, 39 and 46 following the day of tumor cell inoculation. The length and width of each tumor was measured using calipers and the tumor size calculated according to the formula: Tumor size (mm^3)=[…] Mice were euthanized as a “cancer death” when the subcutaneous tumor volumes exceeded 2000 mm^3 or when the tumors became excessively necrotic.

[3] = system: MSTO-211H xenograft model; experiment: MSTO-211H mesothelioma xenograft tumor growth inhibition; assay type: in vivo, mouse; conditions: Mesothelioma MSTO-211H, IP 15 mg/kg BIW, non-amplified, P < 0.0001
Excerpt: (§2) An exemplary xenograft experiment is as follows. For Caki-1 and MSTO-211H, five million cells were implanted subcutaneously over the right flank of SCID mice (N=10 per group). […] Representative tumor growth curves are shown for a renal cancer, Caki-1, (A), and mesothelioma, MSTO-211H, (B) xenograft cancer model. […] In the MSTO-211H mesothelioma model, FGFR1-ECD.339-Fc administration reduced tumor growth (FIG. 16b) by 64% (P<0.0001).

[4] = system: VEGF-induced proliferation of HUVEC cells; experiment: VEGF-A induced HUVEC proliferation; assay type: cell-based, human; conditions: 10 μg/ml; 15 ng/ml VEGF-A165; 3 days, CellTiter-Glo
Method: To determine whether FGFR1-ECD.339-Fc blocks VEGF-induced proliferation of endothelial cells, HUVEC cells (Life Technologies, Grand Island, N.Y.) were seeded at a density of 4×10^3 cells/well in basal media (Medium 200 (Life Technologies) with 2% heat inactivated FBS) and stimulated with either 10 ng/ml FGF2 (R&D Systems, Minneapolis, Minn.) or 15 ng/ml VEGF-A165 (R&D Systems, Minneapolis, Minn.) either in the presence of absence of 10 μg/ml FGFR1-ECD.339-Fc. HUVEC cell proliferation was determined 3 days post-stimulation using CellTiter-Glo® Luminescent Cell Viability Assay.

[5] = system: U-87 xenograft model; experiment: U-87 xenograft tumor growth inhibition; assay type: in vivo, mouse; conditions: Glioblastoma U-87; IP 15 mg/kg BIW; non-amplified; P ns
Method: as §1
Also shown in Table 5 are the dosing schedule for FGFR1-ECD.339-Fc in a mouse xenograft model, the percent tumor growth inhibition (TGI (%)) and the statistical significance of the tumor growth inhibition (P Value), as well as whether the FGFR1 gene is amplified in the cell line.
as §2

What does the source list for “FGFR1-ECD.339-Fc: human FGFR1 extracellular domain ending at amino acid 339 fused to an Fc; SEQ ID NO: 6 (mature form), SEQ ID NO: 5 with signal peptide”?
TGI (%) [1]: 0%; TGI (%) [2]: 47%; TGI (%) [3]: 64%; VEGF-induced proliferation of HUVECs [4]: did not block; TGI (%) [5]: 0%

Source: patent US10537611B2, “Methods of treating lung cancer” (Five Prime Therapeutics, Inc., priority 2011, dated 2020)
